Experiments:
HLA-A*0101 (A1) = HLA-A*0101 (A1) (Homo sapiens, UniProt P04439, A114D/A174V/A182V/D101N/D185E/E176A/E190D/L180R/Q94H/R68K/S129P/T187R/V100A/V91M/W191G); details: cited from earlier work
HLA-A*2402 = HLA-A*2402 (Homo sapiens, UniProt P04439, D101N/D140Y/D185E/E176V/E190D/F33S/G103R/G107R/I119L/I121M/I306V/K335N/L105A/L180Q/L300P/N151K/N90K/Q86E/Q94H/R106L/R138H/R89G/T104I/T345S/V100E/W191G/Y123F); assay: independent binding assay of fluorescent reference peptide (Kdref), A24; details: single-site curve fitting, approximate
Protocol: 50% inhibitory concentrations (IC50-values) were calculated as averages obtained from at least 3 independent measurements, i.e. from different cell preparations and peptide dilutions. Test peptides >95% pure (Thermo Electron GmbH) were stored at 10 mM in DMSO at −20° C. Cysteine-containing peptides were stored at 10 mM in 1 mM DTT DMSO. […] IC50-values were converted to binding free energies (AG) using the relationships Kd=IC50Kdref/cref (7) and AG=RT ln(Kd) (8) where Kdref and cref are the dissociation constant and formal concentration of the reference peptide, respectively. The Kdref values were derived from an independent binding assay in which the fluorescence intensity was measured as a function of increasing concentrations of reference peptide.

Substance: IYQYMDDLY
- binding to A1 in words (HLA-A*0101 (A1); Tyr at P2): medium-affinity binder

Substance: RYLKC(5Fluorescein)QQLL
- Kd (HLA-A*2402): ~0.03 µM

Substance: YSDSVYGDT
- Kd (HLA-A*0101 (A1); strongest A1-binding peptide from HPV-18): 0.188 µM
